Six compounds from ChEMBL document CHEMBL3822442, “Synthesis and Pharmacological Characterization of Novel Glucagon-like Peptide-2 (GLP-2) Analogues with Low Systemic Clearance” (J Med Chem, 2016) can be followed below.

As usually defined, the EC50 is the concentration at which the effect is half-maximal. Low readings indicate an effect from little substance, high ones a need for much substance. The clearance is a measure of how efficiently the substance is removed, as volume per time. Read a high clearance as a high capacity for elimination.

Data set [1] addresses T1, Glucagon-like peptide 2 receptor (Homo sapiens, UniProt O95838).
T1 sequence (O95838 whole entry): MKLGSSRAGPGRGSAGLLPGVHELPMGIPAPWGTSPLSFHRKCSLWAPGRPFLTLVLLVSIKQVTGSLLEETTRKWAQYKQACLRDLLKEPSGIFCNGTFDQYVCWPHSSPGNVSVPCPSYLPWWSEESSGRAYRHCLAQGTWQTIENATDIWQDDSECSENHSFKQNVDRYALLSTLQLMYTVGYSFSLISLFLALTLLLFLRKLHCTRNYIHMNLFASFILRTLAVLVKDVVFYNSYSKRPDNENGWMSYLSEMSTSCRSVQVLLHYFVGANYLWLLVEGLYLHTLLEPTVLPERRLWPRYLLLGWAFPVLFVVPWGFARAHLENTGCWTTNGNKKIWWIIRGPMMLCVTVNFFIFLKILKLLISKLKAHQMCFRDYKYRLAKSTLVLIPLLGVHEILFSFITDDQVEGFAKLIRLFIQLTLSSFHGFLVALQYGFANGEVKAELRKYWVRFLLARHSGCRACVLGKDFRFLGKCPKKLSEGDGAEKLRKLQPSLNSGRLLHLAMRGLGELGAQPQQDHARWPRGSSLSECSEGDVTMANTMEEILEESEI
Briefly: Agonist activity at human GLP2R expressed in HEK293 cells after 5 hrs by luciferase reporter gene assay. The data set is classed as cell-based.

The target in data set [2] is Glucagon-like peptide 1 receptor (Homo sapiens, UniProt P43220). The data set can be described thus: Agonist activity at human GLP1R expressed in HEK293 cells after 5 hrs by luciferase reporter gene assay. The data set is classed as cell-based.
In another data set the test system is HEK293. Briefly: Selectivity ratio of EC50 for human GLP1R expressed in HEK293 cells to EC50 for human GLP2R expressed in HEK293. The data set is classed as cell-based.
Data set [3] can be described thus: Systemic clearance in Sprague-Dawley rat at 0.2 mg/kg, iv through cassette dosing measured up to 300 mins by LC/MS/MS analysis. In kind it is ADME, organism-based. As to conditions: in vivo.

Glucagon-like peptide 1 receptor, sequence (P43220 whole entry): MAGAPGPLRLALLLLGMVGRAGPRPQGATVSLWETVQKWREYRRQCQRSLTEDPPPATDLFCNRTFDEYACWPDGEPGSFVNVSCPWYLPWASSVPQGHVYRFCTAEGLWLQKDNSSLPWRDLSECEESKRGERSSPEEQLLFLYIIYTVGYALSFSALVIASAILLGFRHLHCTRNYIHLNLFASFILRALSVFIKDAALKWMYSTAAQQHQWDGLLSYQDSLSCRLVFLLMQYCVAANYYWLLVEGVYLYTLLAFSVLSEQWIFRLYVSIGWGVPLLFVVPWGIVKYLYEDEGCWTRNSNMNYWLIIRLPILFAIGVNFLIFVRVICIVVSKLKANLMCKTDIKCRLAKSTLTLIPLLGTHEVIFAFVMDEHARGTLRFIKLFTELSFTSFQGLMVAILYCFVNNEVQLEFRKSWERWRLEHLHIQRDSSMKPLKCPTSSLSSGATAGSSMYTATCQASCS

For `CCCCC(NC(=O)[C@H](CCC(=O)O)NC(=O)[C@H](CC(=O)O)NC(=O)[C@H](CO)NC(=O)[C@H](Cc1ccccc1)NC(=O)[C@H](CO)NC(=O)CNC(=O)[C@H](CC(=O)O)NC(=O)CNC(=O)[C@@H](N)Cc1cnc[nH]1)C(=O)N[C@H](Cc1cccs1)C(=O)N[C@H](C(=O)N[C@H](C(=O)N[C@@H](CC(C)C)C(=O)N[C@@H](CC(=O)O)C(=O)N[C@@H](CC(C)C)C(=O)N[C@@H](CC(C)C)C(=O)N[C@@H](C)C(=O)N[C@H](C(=O)N[C@@H](CCCNC(=N)N)C(=O)N[C@@H](CC(=O)O)C(=O)N[C@@H](Cc1ccccc1)C(=O)N[C@H](C(=O)N[C@@H](CC(N)=O)C(=O)N[C@@H](Cc1c[nH]c2ccccc12)C(=O)N[C@@H](CC(C)C)C(=O)N[C@H](C(=O)N[C@@H](CCC(N)=O)C(=O)N[C@H](C(=O)N[C@@H](CCCCN)C(=O)N[C@H](C(=O)N[C@H](C(=O)N[C@@H](CC(=O)O)C(N)=O)[C@@H](C)O)[C@@H](C)CC)[C@@H](C)O)[C@@H](C)CC)[C@@H](C)CC)[C@@H](C)O)[C@@H](C)CC)[C@@H](C)O` (some centres undefined), the EC50 in data set [1] was 0.05 nM; in data set [2], over 1000 nM. Further, the Ratio EC50 with HEK293 was over 20000. The same compound registered a clearance in data set [3] of 0.0168 L/h/kg.
For `CCCCC(NC(=O)[C@H](CCC(=O)O)NC(=O)[C@H](CC(=O)O)NC(=O)[C@H](CO)NC(=O)[C@H](Cc1ccccc1)NC(=O)[C@H](CO)NC(=O)CNC(=O)[C@H](CC(=O)O)NC(=O)CNC(=O)[C@@H](N)Cc1cnc[nH]1)C(=O)N[C@H](Cc1cccs1)C(=O)N[C@H](C(=O)N[C@H](C(=O)N[C@@H](CC(C)C)C(=O)N[C@@H](CC(=O)O)C(=O)N[C@@H](Cc1ccccc1)C(=O)N[C@@H](CC(C)C)C(=O)N[C@@H](C)C(=O)N[C@@H](C)C(=O)N[C@@H](CCCNC(=N)N)C(=O)N[C@@H](CC(=O)O)C(=O)N[C@@H](Cc1ccccc1)C(=O)N[C@H](C(=O)N[C@@H](CC(N)=O)C(=O)N[C@@H](Cc1c[nH]c2ccccc12)C(=O)N[C@@H](CC(C)C)C(=O)N[C@H](C(=O)N[C@@H](CCC(N)=O)C(=O)N[C@H](C(=O)N[C@@H](CCCCN)C(=O)N[C@H](C(=O)N[C@H](C(=O)N[C@@H](CC(=O)O)C(N)=O)[C@@H](C)O)[C@@H](C)CC)[C@@H](C)O)[C@@H](C)CC)[C@@H](C)CC)[C@@H](C)CC)[C@@H](C)O` (some centres undefined), the EC50 in data set [1] is 0.07 nM; in data set [2], over 1000 nM. Moreover, in the data set on HEK293, the Ratio EC50 was over 14000. The same compound registered a clearance in data set [3] of 0.009 L/h/kg.
On to `CCCCC(NC(=O)[C@H](CCC(=O)O)NC(=O)[C@H](CC(=O)O)NC(=O)[C@H](CO)NC(=O)[C@H](Cc1ccccc1)NC(=O)[C@H](CO)NC(=O)CNC(=O)[C@H](CC(=O)O)NC(=O)CNC(=O)[C@@H](N)Cc1cnc[nH]1)C(=O)N[C@H](Cc1ccccc1)C(=O)N[C@H](C(=O)N[C@H](C(=O)N[C@@H](CC(C)C)C(=O)N[C@@H](CC(=O)O)C(=O)N[C@@H](CC(C)C)C(=O)N[C@@H](CC(C)C)C(=O)N[C@@H](C)C(=O)N[C@@H](C)C(=O)N[C@@H](CCCNC(=N)N)C(=O)N[C@@H](CC(=O)O)C(=O)N[C@@H](Cc1ccccc1)C(=O)N[C@H](C(=O)N[C@@H](CC(N)=O)C(=O)N[C@@H](Cc1c[nH]c2ccccc12)C(=O)N[C@@H](CC(C)C)C(=O)N[C@H](C(=O)N[C@@H](CCC(N)=O)C(=O)N[C@H](C(=O)N[C@@H](CCCCN)C(=O)N[C@H](C(=O)N[C@H](C(=O)N[C@@H](CC(=O)O)C(=O)NCCCOCCOCCOCCCNC(=O)COCC(N)=O)[C@@H](C)O)[C@@H](C)CC)[C@@H](C)O)[C@@H](C)CC)[C@@H](C)CC)[C@@H](C)CC)[C@@H](C)O` (some centres undefined), for which the EC50 in data set [1] is 0.03 nM; in data set [2], over 1000 nM. In addition, in the data set with HEK293, the Ratio EC50 is over 33000. Further, the clearance in data set [3] is 0.0168 L/h/kg.
Regarding `CCCCC(NC(=O)[C@@H](CCC(=O)O)NC(=O)[C@@H](CC(=O)O)NC(=O)[C@@H](CO)NC(=O)[C@@H](Cc1ccccc1)NC(=O)[C@@H](CO)NC(=O)CNC(=O)[C@@H](CC(=O)O)NC(=O)CNC(=O)[C@@H](N)Cc1cnc[nH]1)C(=O)N[C@@H](Cc1cccc(Cl)c1)C(=O)N[C@@H](C(=O)N[C@@H](C(=O)N[C@H](CC(C)C)C(=O)N[C@H](CC(=O)O)C(=O)NC(Cc1ccc2ccccc2c1)C(=O)N[C@@H](CC(C)C)C(=O)N[C@@H](C)C(=O)N[C@@H](C)C(=O)N[C@@H](CCCNC(=N)N)C(=O)N[C@@H](CC(=O)O)C(=O)N[C@@H](Cc1ccccc1)C(=O)N[C@H](C(=O)N[C@@H](CC(N)=O)C(=O)N[C@H](Cc1c[nH]c2ccccc12)C(=O)N[C@H](CC(C)C)C(=O)N[C@@H](C(=O)N[C@H](CCC(N)=O)C(=O)N[C@@H](C(=O)N[C@H](CCCCN)C(=O)N[C@@H](C(=O)N[C@@H](C(=O)N[C@@H](CC(=O)O)C(N)=O)[C@H](C)O)[C@@H](C)CC)[C@H](C)O)[C@@H](C)CC)[C@H](C)CC)[C@@H](C)CC)[C@H](C)O` (some centres undefined), the EC50 is 0.51 nM in data set [1] and over 1000 nM in data set [2]. Besides, the Ratio EC50 in the data set on HEK293 is over 1900. Moreover, in data set [3], the clearance was found to be 0.0066 L/h/kg.
`CCCCC(NC(=O)[C@H](CCC(=O)O)NC(=O)[C@H](CC(=O)O)NC(=O)[C@H](CO)NC(=O)[C@H](Cc1ccccc1)NC(=O)[C@H](CO)NC(=O)CNC(=O)[C@H](CC(=O)O)NC(=O)CNC(=O)[C@@H](N)Cc1cnc[nH]1)C(=O)N[C@H](Cc1cccc(Cl)c1)C(=O)N[C@H](C(=O)N[C@H](C(=O)N[C@@H](CC(C)C)C(=O)N[C@@H](CC(=O)O)C(=O)N[C@@H](CC(C)C)C(=O)N[C@@H](CC(C)C)C(=O)N[C@@H](C)C(=O)N[C@@H](C)C(=O)N[C@@H](CCCNC(=N)N)C(=O)N[C@@H](CC(=O)O)C(=O)N[C@@H](Cc1ccccc1)C(=O)N[C@H](C(=O)N[C@@H](CC(N)=O)C(=O)N[C@@H](Cc1c[nH]c2ccccc12)C(=O)N[C@@H](CC(C)C)C(=O)N[C@H](C(=O)N[C@@H](CCC(N)=O)C(=O)N[C@H](C(=O)N[C@@H](CCCCN)C(=O)N[C@H](C(=O)N[C@H](C(=O)N[C@@H](CC(=O)O)C(N)=O)[C@@H](C)O)[C@@H](C)CC)[C@@H](C)O)[C@@H](C)CC)[C@@H](C)CC)[C@@H](C)CC)[C@@H](C)O` (some centres undefined): the EC50 in data set [1] is 0.09 nM; in data set [2] it was over 1000 nM. Moreover, the Ratio EC50 in the data set with HEK293 was over 11000. The compound also yielded a clearance in data set [3] of 0.012 L/h/kg.
For `CCCCC(NC(=O)[C@H](CCC(=O)O)NC(=O)[C@H](CC(=O)O)NC(=O)[C@H](CO)NC(=O)[C@H](Cc1ccccc1)NC(=O)[C@H](CO)NC(=O)CNC(=O)[C@H](CC(=O)O)NC(=O)CNC(=O)[C@@H](N)Cc1cnc[nH]1)C(=O)N[C@H](Cc1ccccc1)C(=O)N[C@H](C(=O)N[C@H](C(=O)N[C@@H](CC(C)C)C(=O)N[C@@H](CC(=O)O)C(=O)N[C@@H](Cc1ccccc1)C(=O)N[C@@H](CC(C)C)C(=O)N[C@@H](C)C(=O)N[C@@H](C)C(=O)N[C@@H](CCCNC(=N)N)C(=O)N[C@@H](CC(=O)O)C(=O)N[C@@H](Cc1ccccc1)C(=O)N[C@H](C(=O)N[C@@H](CC(N)=O)C(=O)N[C@@H](Cc1c[nH]c2ccccc12)C(=O)N[C@@H](CC(C)C)C(=O)N[C@H](C(=O)N[C@@H](CCC(N)=O)C(=O)N[C@H](C(=O)N[C@@H](CCCCN)C(=O)N[C@H](C(=O)N[C@H](C(=O)N[C@@H](CC(=O)O)C(=O)O)[C@@H](C)O)[C@@H](C)CC)[C@@H](C)O)[C@@H](C)CC)[C@@H](C)CC)[C@@H](C)CC)[C@@H](C)O` (some centres undefined) the same measures were 0.06 nM, over 1000 nM, over 16000 and 0.009 L/h/kg.
